Experimental data: paper PMC10283044, “Structure–Activity Relationship of Lower Chlorinated Biphenyls and Their Human-Relevant Metabolites for Astrocyte Toxicity” (Chemical Research in Toxicology, 2023)
Counter-ions that a name gives are not always drawn. Like-named read-outs stand apart in the source and are kept apart here.

What was measured:
[1] = system: C6 cells; test: MTT cell viability assay in C6 cells; type: cell-based; details: 0.5 to 50 μM; for toxicity (cell viability) in the tested concentration range: C6 cells, 24 h; for IC50: Rattus norvegicus, C6 cell line, 24 h exposure
Experimental: C6 cells (CCL-107, Lot No. 63821786) were purchased from the American Type Culture Collection (ATCC, Manassas, VA, U.S.A.). This cell line has been previously used as an in vitro astrocyte model for toxicity[22] and is morphologically and functionally similar to primary astrocyte cultures.[34] The C6 cells were grown and maintained at 37 °C under humidified conditions at 5% CO2 in DMEM/F12 medium supplemented with 10% FBS and 1% P/S. The cells were maintained at a seeding density of 1 × 10^6 cells in 100 mm tissue culture-treated dishes (Cat. No. 430167, Corning, Somerville, MA, U.S.A.). All the experiments for the current study utilizing C6 cells have been performed within passage 2 and passage 20.
(§1) All the LC-PCB exposures or their corresponding human-relevant metabolite exposures were performed in serum-free, phenol-red-free cell culture media suited for the respective cell type described above. The exposures were within a concentration range of 0.5–50 μM for 24 h at 37 °C under humidified conditions at 5% CO2. DMSO was used as a negative control. All stock solutions of the test compounds were prepared in DMSO. The final DMSO concentration was maintained at <0.5% for all the exposures. After the 24 h incubation, either an MTT assay for cell viability or an LDH assay for cytotoxicity was employed.
(§2) C6 or primary cells were seeded in 24-well cell culture plates (Corning Inc., Corning, NY, U.S.A; Cat No. 3526) and allowed to grow until 80–90% confluent. The cells were then exposed to test compounds, as described above (0, 0.5, 1, 5, 10, 20, and 50 μM). The MTT assay was performed, as described[38] with modifications. After 24 h of exposure, the media was removed, and cells were washed with HBSS once. Two hundred microliters of 0.5 mg/mL MTT solution prepared in HBSS/Glucose (Glucose used at 1 mg/mL HBSS) was added to each well of the 24-well plate. The cells were incubated with the MTT solution for 45 min to 1 h at 37 °C under humidified conditions at 5% CO2. After incubation, the MTT solution was removed, and the water-insoluble purple formazan product was dissolved in 400 μL DMSO. This DMSO solution was added to a clear, flat bottom 96-well polystyrene plate (Cat. No. 12-565-501, Thermo Fisher Scientific, Waltham, MA. U.S.A.) in duplicate and read at 570 and 650 nm using a microplate reader (SpectraMax 190, Molecular Devices, San Jose, CA. U.S.A.). The mean percent cell viability was calculated as follows: [drawing 1]

[2] = MTT cell viability assay in mouse primary glial cells; type: cell-based, C57BL/6 mouse; details: mouse, primary mixed glial cells, MTT, primary glial cells from C57BL/6 mice
Experimental: (§3) Primary glial cell cultures obtained from PND1-3 C57BL/6 mice pups were provided by Dr. Tjalkens at Colorado State University, Fort Collins, CO, U.S.A. The primary astroglial cell cultures were grown and maintained, as described previously in MEM medium supplemented with 10% FBS and 1% P/S.[37]
as §1, §2

[3] = system: rat primary astrocytes; test: MTT cell viability assay in rat primary astrocytes; type: cell-based, Sprague-Dawley rat; details: 24 h
Source text: Sprague-Dawley male and female rats were utilized to obtain cultures of sex-specific primary cortical cells. All animal experiments were approved by the Institutional Animal Care and Uses Committee (IACUC) at the University of Iowa. The rat pups were sex-segregated as males and females based on visual examination and later confirmed by the presence of a Y chromosome-specific gene Sry by PCR. The gene for beta-actin, Actb, was used as a control. The primer sequences used for PCR amplification were as described,[35] which yielded a 317-bp product for Sry and a 220-bp product for Actb. Both products were confirmed by gel electrophoresis on a 1% agarose gel after PCR amplification was completed. As previously described, with modifications, astrocytes were obtained from the cortex of PND2/3 rats.[36] Briefly, cortical sections were dissociated in minimal essential medium with Earle’s salts for suspension cultures (S-MEM; Life Technologies) with 1% penicillin/streptomycin and 1.5 U/mL dispase (Life Technologies) for 60 min, aliquoting and replacing dissociation media every 10 min, adding 8000 U/mL DNase I in water after the first digestion. The enzymatic digestion was stopped by adding a growth medium containing minimal essential medium with Earle’s salts (MEM; Life Technologies) with 1% P/S and 10% heat-inactivated horse serum. After digestion, cells were centrifuged for 10 min at 1000 × g at 4 °C, and the pellet was resuspended in a growth medium. Cells were assessed for count and viability and then plated at 10,000 viable cells/cm^2 in T75 flasks. Flasks were shaken after 24 h, and media was replaced to begin removing microglia and then repeated every 2–3 days. Flow cytometry utilizing GFAP and IBA1 antibodies was run at passage 2 to confirm the elimination of microglia from the primary astrocyte cultures. The rat primary astrocyte cultures were maintained in MEM with 1% P/S and 10% heat-inactivated horse serum at 37 °C under humidified conditions at 5% CO2. The detailed protocol for astrocyte isolation of sex segregated rat pups and further validation of purity of astrocyte cultures is published and can be accessed at: dx.doi.org/10.17504/protocols.io.e6nvwjry7lmk/v1.
as §1, §2

[4] = system: mouse primary mixed glial cells; test: MTT cell viability assay in mouse primary glial cells; type: cell-based, C57BL/6 mouse; details: Glial cell; mouse primary mixed glial cells (about 80% astrocytes, 20% microglia), MTT assay, 24 h
Experimental: as §3, §1, §2

[5] = read-out: sulfated metabolite IC50
[6] = Astrocyte, sex segregated rat primary astrocytes, female, read-out: IC50 females
[7] = Astrocyte, sex segregated rat primary astrocytes, male, read-out: IC50 males
[8] = read-out: hydroxylated metabolite IC50

Structure (SMILES): O=S(=O)(O)Oc1cc(Cl)c(-c2cc(Cl)ccc2Cl)cc1Cl [4-OH-PCB52 sulfate]
- toxicity (cell viability) in the tested concentration range [1]: reduced cell viability
- IC50 [1, 5]: 8.4 µM
- viability at 24 h, 5 µM [2]: > 150%
- viability at 24 h, 10 μM ([2]; next higher concentration after 5 μM): 20%
- IC50 [3, 6]: 6.9 µM
- IC50 [3, 7]: 7 µM

Structure (SMILES): Oc1cc(Cl)c(-c2cc(Cl)ccc2Cl)cc1Cl [4-OH-PCB52]
- IC50 [1, 8]: 2.2 µM
- viability at 24 h, 1 µM ([2]; 1 μM): 150%
- viability at 24 h, 5 µM [2]: ~0%
- IC50 [3, 6]: 4.4 µM
- IC50 [3, 7]: 4.9 µM

Structure (SMILES): Clc1ccc(-c2ccccc2)cc1 [PCB3, 4-chlorobiphenyl]
- toxicity (cell viability) in the tested concentration range [1]: non-toxic
- IC50 ([1]; read-out: parent compound IC50): > 50 µM

Structure (SMILES): Clc1cccc(-c2cccc(Cl)c2)c1 [PCB11, 3,3′-dichlorobiphenyl]
- toxicity (cell viability) in the tested concentration range [1]: non-toxic
- IC50 ([1]; read-out: parent compound IC50): > 50 µM

Structure (SMILES): Clc1cccc(-c2ccc(Cl)cc2Cl)c1 [PCB25, 2,3′,4-trichlorobiphenyl]
- IC50 ([1]; read-out: parent compound IC50): 10 µM

Structure (SMILES): Clc1ccc(-c2ccc(Cl)cc2Cl)cc1 [PCB28, 2,4,4′-trichlorobiphenyl]
- IC50 ([1]; read-out: parent compound IC50): ~25 µM

Structure (SMILES): Clc1ccc(Cl)c(-c2cc(Cl)ccc2Cl)c1 [PCB52, 2,2′,5,5′-tetrachlorobiphenyl]
- IC50 ([1]; read-out: parent compound IC50): 8.8 µM
- IC50 [4]: 9.8 µM
- IC50 [3, 6]: 14.4 µM
- IC50 [3, 7]: 15.3 µM
- IC50 ([3]; mixed rat primary astrocyte cultures (>95% astrocytes), read-out: IC50): 11.8 µM

Structure (SMILES): Oc1ccc(-c2ccc(Cl)cc2)cc1 [PCB 3 hydroxylated metabolite]
- IC50 [1, 8]: 21.4 µM

Structure (SMILES): O=S(=O)(O)Oc1ccc(-c2ccc(Cl)cc2)cc1 [PCB 3 sulfated metabolite]
- IC50 [1, 5]: > 50 µM

Structure (SMILES): Oc1ccc(-c2cccc(Cl)c2)cc1Cl [PCB 11 hydroxylated metabolite]
- IC50 [1, 8]: 13 µM

Structure (SMILES): O=S(=O)(O)Oc1ccc(-c2cccc(Cl)c2)cc1Cl [PCB 11 sulfated metabolite]
- IC50 [1, 5]: > 50 µM

Structure (SMILES): Oc1ccc(-c2ccc(Cl)cc2Cl)cc1Cl [PCB 25 hydroxylated metabolite]
- IC50 [1, 8]: 5.3 µM

Structure (SMILES): O=S(=O)(O)Oc1ccc(-c2ccc(Cl)cc2Cl)cc1Cl [PCB 25 sulfated metabolite]
- IC50 [1, 5]: > 50 µM
